Values after ≈ are worked out from the molar mass of the structure shown.
Tested on: HL-60
Experiment: Cytotoxicity against human HL60 cells after 72 hrs by MTT assay
Format: functional, cell-based
Details: HL-60, 72 h

| Structure (SMILES) | IC50 [µg/mL] |
| --- | --- |
| CC(=O)O[C@@H]1[C@@H](O)[C@H](C)O[C@@H](O[C@H]2C[C@H]3[C@@H]4CC=C5C[C@@H](O[C@@H]6O[C@H](CO)[C@@H](O)[C@H](O)[C@H]6O)CC[C@]5(C)[C@H]4CC[C@]3(C)[C@H]2[C@H](C)[C@@H](O)CC=C(C)C)[C@@H]1O | 6.8 (≈ 8.87 µM) |
| COc1cc([C@@H]2c3cc4c(cc3[C@@H](O[C@@H]3O[C@@H]5CO[C@@H](C)O[C@H]5[C@H](O)[C@H]3O)[C@H]3COC(=O)[C@H]23)OCO4)cc(OC)c1O [ETOPOSIDE] | 0.25 (≈ 0.425 µM) |

Reference: ChEMBL document CHEMBL1155749, “Five new polyoxygenated cholestane bisdesmosides from the bulbs of Galtonia candicans” (J Nat Prod, 2001)
